Reference: PubChem BioAssay AID1259407 (Chemical Carcinogenesis Research Information System (CCRIS), 2018)
The source made the active and inactive calls. No rule for the calls is given here.

System: CCRIS mutagenicity, Ames/micronucleus/aberration tests
Assay: CCRIS mutagenicity studies
[1] = Test System: AMES SALMONELLA TYPHIMURIUM, Strain/Indicator: TA98, Metabolic Activation: NONE, Method: PREINCUBATION
[2] = Test System: AMES SALMONELLA TYPHIMURIUM, Strain/Indicator: TA100, Metabolic Activation: NONE, Method: PREINCUBATION
[3] = Test System: AMES SALMONELLA TYPHIMURIUM, Strain/Indicator: TA1535, Metabolic Activation: NONE, Method: PREINCUBATION
[4] = Test System: AMES SALMONELLA TYPHIMURIUM, Strain/Indicator: TA1537, Metabolic Activation: NONE, Method: PREINCUBATION

## CO
[1]
  mutagenic call: inactive; negative
Test System: AMES SALMONELLA TYPHIMURIUM, Strain/Indicator: TA98, Metabolic Activation: RAT, LIVER, S-9, KC 500, Method: PREINCUBATION
  mutagenic call: inactive; negative
[2]
  mutagenic call: inactive; negative
Test System: AMES SALMONELLA TYPHIMURIUM, Strain/Indicator: TA100, Metabolic Activation: RAT, LIVER, S-9, KC 500, Method: PREINCUBATION
  mutagenic call: inactive; negative
[3]
  mutagenic call: inactive; negative
Test System: AMES SALMONELLA TYPHIMURIUM, Strain/Indicator: TA1535, Metabolic Activation: RAT, LIVER, S-9, KC 500, Method: PREINCUBATION
  mutagenic call: inactive; negative
[4]
  mutagenic call: inactive; negative
Test System: AMES SALMONELLA TYPHIMURIUM, Strain/Indicator: TA1537, Metabolic Activation: RAT, LIVER, S-9, KC 500, Method: PREINCUBATION
  mutagenic call: inactive; negative
Test System: AMES SALMONELLA TYPHIMURIUM, Strain/Indicator: TA1538, Metabolic Activation: NONE, Method: PREINCUBATION
  mutagenic call: inactive; negative
Test System: AMES SALMONELLA TYPHIMURIUM, Strain/Indicator: TA1538, Metabolic Activation: RAT, LIVER, S-9, KC 500, Method: PREINCUBATION
  mutagenic call: inactive; negative
Test System: E. COLI, Strain/Indicator: WP2 UVRA, Metabolic Activation: NONE, Method: PREINCUBATION
  mutagenic call: inactive; negative
Test System: E. COLI, Strain/Indicator: WP2 UVRA, Metabolic Activation: RAT, LIVER, S-9, KC 500, Method: PREINCUBATION
  mutagenic call: inactive; negative

## CC1=NN(c2ccccc2)C(=O)C1
Test System: AMES SALMONELLA TYPHIMURIUM, Strain/Indicator: TA98, Metabolic Activation: HAMSTER, LIVER, S-9, AROCLOR 1254 (10%), Method: PREINCUBATION
  mutagenic call: inactive; negative
[1]
  mutagenic call: inactive; negative
Test System: AMES SALMONELLA TYPHIMURIUM, Strain/Indicator: TA98, Metabolic Activation: RAT, LIVER, S-9, AROCLOR 1254 (10%), Method: PREINCUBATION
  mutagenic call: inactive; negative
Test System: AMES SALMONELLA TYPHIMURIUM, Strain/Indicator: TA100, Metabolic Activation: HAMSTER, LIVER, S-9, AROCLOR 1254 (10%), Method: PREINCUBATION
  mutagenic call: inactive; negative
[2]
  mutagenic call: inactive; negative
Test System: AMES SALMONELLA TYPHIMURIUM, Strain/Indicator: TA100, Metabolic Activation: RAT, LIVER, S-9, AROCLOR 1254 (10%), Method: PREINCUBATION
  mutagenic call: inactive; negative
Test System: AMES SALMONELLA TYPHIMURIUM, Strain/Indicator: TA1535, Metabolic Activation: HAMSTER, LIVER, S-9, AROCLOR 1254 (10%), Method: PREINCUBATION
  mutagenic call: inactive; negative
[3]
  mutagenic call: inactive; negative
Test System: AMES SALMONELLA TYPHIMURIUM, Strain/Indicator: TA1535, Metabolic Activation: RAT, LIVER, S-9, AROCLOR 1254 (10%), Method: PREINCUBATION
  mutagenic call: inactive; negative
Test System: AMES SALMONELLA TYPHIMURIUM, Strain/Indicator: TA1537, Metabolic Activation: HAMSTER, LIVER, S-9, AROCLOR 1254 (10%), Method: PREINCUBATION
  mutagenic call: inactive; negative
[4]
  mutagenic call: inactive; negative
Test System: AMES SALMONELLA TYPHIMURIUM, Strain/Indicator: TA1537, Metabolic Activation: RAT, LIVER, S-9, AROCLOR 1254 (10%), Method: PREINCUBATION
  mutagenic call: inactive; negative
Test System: Ames Salmonella typhimurium, Strain/Indicator: TA98, Metabolic Activation: None, Method: Preincubation
  mutagenic call: inactive; negative
Test System: Ames Salmonella typhimurium, Strain/Indicator: TA98, Metabolic Activation: Rat, Liver, S-9, Phenobarbital and 5,6-benzoflavone, Method: Preincubation
  mutagenic call: inactive; negative
Test System: Ames Salmonella typhimurium, Strain/Indicator: TA100, Metabolic Activation: None, Method: Preincubation
  mutagenic call: inactive; negative
Test System: Ames Salmonella typhimurium, Strain/Indicator: TA100, Metabolic Activation: Rat, Liver, S-9, Phenobarbital and 5,6-benzoflavone, Method: Preincubation
  mutagenic call: inactive; negative
Test System: Ames Salmonella typhimurium, Strain/Indicator: TA1535, Metabolic Activation: None, Method: Preincubation
  mutagenic call: inactive; negative
Test System: Ames Salmonella typhimurium, Strain/Indicator: TA1535, Metabolic Activation: Rat, Liver, S-9, Phenobarbital and 5,6-benzoflavone, Method: Preincubation
  mutagenic call: inactive; negative
Test System: Ames Salmonella typhimurium, Strain/Indicator: TA1537, Metabolic Activation: None, Method: Preincubation
  mutagenic call: inactive; negative
Test System: Ames Salmonella typhimurium, Strain/Indicator: TA1537, Metabolic Activation: Rat, Liver, S-9, Phenobarbital and 5,6-benzoflavone, Method: Preincubation
  mutagenic call: inactive; negative
Test System: E. COLI, Strain/Indicator: WP2 UVRA, Metabolic Activation: HAMSTER, LIVER, S-9, AROCLOR 1254, Method: STANDARD PLATE
  mutagenic call: inactive; negative
Test System: E. COLI, Strain/Indicator: WP2 UVRA, Metabolic Activation: HAMSTER, LIVER, S-9, Method: STANDARD PLATE
  mutagenic call: inactive; negative
Test System: E. COLI, Strain/Indicator: WP2 UVRA, Metabolic Activation: MOUSE, LIVER, S-9, AROCLOR 1254, Method: STANDARD PLATE
  mutagenic call: inactive; negative
Test System: E. COLI, Strain/Indicator: WP2 UVRA, Metabolic Activation: MOUSE, LIVER, S-9, Method: STANDARD PLATE
  mutagenic call: inactive; negative
Test System: E. COLI, Strain/Indicator: WP2 UVRA, Metabolic Activation: NONE, Method: STANDARD PLATE
  mutagenic call: inactive; negative
Test System: E. COLI, Strain/Indicator: WP2 UVRA, Metabolic Activation: RAT, LIVER, S-9, AROCLOR 1254, Method: STANDARD PLATE
  mutagenic call: inactive; negative
Test System: E. COLI, Strain/Indicator: WP2 UVRA, Metabolic Activation: RAT, LIVER, S-9, Method: STANDARD PLATE
  mutagenic call: inactive; negative
Test System: E. coli, Strain/Indicator: WP2uvrA/pKM101, Metabolic Activation: None, Method: Preincubation
  mutagenic call: inactive; negative
Test System: E. coli, Strain/Indicator: WP2uvrA/pKM101, Metabolic Activation: Rat, Liver, S-9, Phenobarbital and 5,6-benzoflavone, Method: Preincubation
  mutagenic call: inactive; negative
Test System: MOUSE LYMPHOMA, Strain/Indicator: L5178Y (TK+/TK-), Metabolic Activation: NONE, Method: SUSPENSION/PLATE
  mutagenic call: inactive; negative
Test System: MOUSE LYMPHOMA, Strain/Indicator: L5178Y (TK+/TK-), Metabolic Activation: RAT, LIVER, S-9, AROCLOR 1254, Method: SUSPENSION/PLATE
  mutagenic call: active; positive

## CCCCC(CC)COC(=O)COc1ccc(Cl)cc1Cl (centres undefined)
Test System: AMES SALMONELLA TYPHIMURIUM, Strain/Indicator: TA98, Metabolic Activation: NONE, Method: STANDARD PLATE
  mutagenic call: inactive; negative
Test System: AMES SALMONELLA TYPHIMURIUM, Strain/Indicator: TA98, Metabolic Activation: RAT LIVER S-9, AROCLOR 1254, 10%, Method: STANDARD PLATE
  mutagenic call: inactive; negative
Test System: AMES SALMONELLA TYPHIMURIUM, Strain/Indicator: TA100, Metabolic Activation: NONE, Method: STANDARD PLATE
  mutagenic call: inactive; negative
Test System: AMES SALMONELLA TYPHIMURIUM, Strain/Indicator: TA100, Metabolic Activation: RAT LIVER S-9, AROCLOR 1254, 10%, Method: STANDARD PLATE
  mutagenic call: inactive; negative
Test System: AMES SALMONELLA TYPHIMURIUM, Strain/Indicator: TA1535, Metabolic Activation: NONE, Method: STANDARD PLATE
  mutagenic call: inactive; negative
Test System: AMES SALMONELLA TYPHIMURIUM, Strain/Indicator: TA1535, Metabolic Activation: RAT LIVER S-9, AROCLOR 1254, 10%, Method: STANDARD PLATE
  mutagenic call: inactive; negative
Test System: AMES SALMONELLA TYPHIMURIUM, Strain/Indicator: TA1537, Metabolic Activation: NONE, Method: STANDARD PLATE
  mutagenic call: inactive; negative
Test System: AMES SALMONELLA TYPHIMURIUM, Strain/Indicator: TA1537, Metabolic Activation: RAT LIVER S-9, AROCLOR 1254, 10%, Method: STANDARD PLATE
  mutagenic call: inactive; negative
Test System: AMES SALMONELLA TYPHIMURIUM, Strain/Indicator: TA1538, Metabolic Activation: NONE, Method: STANDARD PLATE
  mutagenic call: inactive; negative
Test System: AMES SALMONELLA TYPHIMURIUM, Strain/Indicator: TA1538, Metabolic Activation: RAT LIVER S-9, AROCLOR 1254, 10%, Method: STANDARD PLATE
  mutagenic call: inactive; negative
Test System: UDS RAT HEPATOCYTES, Strain/Indicator: THYMIDINE INCORPORATION, Metabolic Activation: NONE, Method: AUTORADIOGRAPHY
  mutagenic call: inactive; negative
